O=C(c1ccc(-c2ccncc2)nc1)N1CCN(S(=O)(=O)c2ccc3cc(Br)ccc3c2)CC1 (hydrate or solvate) [Example 1, 1-(6-bromonaphth-2-ylsulphonyl)-4-[6-(4-pyridyl)-nicotinoyl]piperazine]
melting point: 193.5 °C

— patent US6458793B1, “Heterocyclic derivatives which inhibit factor Xa” (Zeneca Limited, priority 1997, dated 2002)
